Test results as given in patent US20050153021A1, “Calcium-fortified protein-based beverage containing calcium (lactate) gluconate citrate” (PURAC BIOCHEM BV, priority 2003, published 2005).

Legend:
[1] = Stability test in presence of protein: calcium salt added to milk, heat treatment; assay type: physicochemical; conditions: 600 ppm calcium added
[2] = Stability test in presence of protein: calcium salt added to soy milk, heat treatment; assay type: physicochemical; conditions: 600 ppm calcium added

Row | SMILES | protein stability (coagulation) of the fortified milk after heat treatment [1] | protein stability (coagulation / viscosity) of the fortified soy milk after heat treatment [2]
1 | CC(O)C(=O)[O-].O=C([O-])[C@H](O)[C@@H](O)[C@H](O)[C@H](O)CO.[Ca+2] [calcium lactate gluconate] | completely coagulated to a firm substance | completely coagulated to a firm substance
2 | CC(O)C(=O)O.O=C(O)[C@H](O)[C@@H](O)[C@H](O)[C@H](O)CO.O=C([O-])CC(O)(CC(=O)[O-])C(=O)O.[Ca+2] [calcium lactate gluconate citrate] | coaglulated a little to become a quark like substance | somewhat increased viscosity after heat treatment, but was still pourable
